Laboratory results: the NIST ThermoML archive (doi:10.1007/s10765-006-0033-6)

Experiment: compressibility factor (dimensionless); xn = mol fraction of the nth substance listed
Conditions: Gas, Other PVT measurement

[N-]=[N+]=O [nitrous oxide] + FCF
Conditions	compressibility factor
343.77 K, 195.1 kPa, x1 = 0.4666	0.989
343.77 K, 207.5 kPa, x1 = 0.2266	0.9867
343.77 K, 226.8 kPa, x1 = 0.7567	0.9899
343.77 K, 290.7 kPa, x1 = 0.4666	0.985
343.77 K, 308.8 kPa, x1 = 0.2266	0.9814
343.77 K, 338.1 kPa, x1 = 0.7567	0.9863
343.77 K, 432.2 kPa, x1 = 0.4666	0.9788
343.77 K, 458 kPa, x1 = 0.2266	0.973
343.77 K, 502.9 kPa, x1 = 0.7567	0.9804
343.77 K, 640.2 kPa, x1 = 0.4666	0.9692
343.77 K, 676.2 kPa, x1 = 0.2266	0.9601
343.77 K, 745.4 kPa, x1 = 0.7567	0.9714
343.77 K, 943.3 kPa, x1 = 0.4666	0.9546
343.77 K, 991.2 kPa, x1 = 0.2266	0.9407
343.77 K, 1099.4 kPa, x1 = 0.7567	0.9577
343.77 K, 1379.1 kPa, x1 = 0.4666	0.9328
343.77 K, 1438.1 kPa, x1 = 0.2266	0.9123
343.77 K, 1609.7 kPa, x1 = 0.7567	0.9372
343.77 K, 1992.6 kPa, x1 = 0.4666	0.9008
343.77 K, 2053.8 kPa, x1 = 0.2266	0.8708
343.77 K, 2331.4 kPa, x1 = 0.7567	0.9073
343.77 K, 2828.1 kPa, x1 = 0.4666	0.8546
343.77 K, 2865.7 kPa, x1 = 0.2266	0.8122
343.77 K, 3321.8 kPa, x1 = 0.7567	0.8641
343.77 K, 3911.6 kPa, x1 = 0.4666	0.7901
343.77 K, 4620.1 kPa, x1 = 0.7567	0.8033
343.78 K, 138.3 kPa, x1 = 0.3594	0.9911
343.78 K, 187.9 kPa, x1 = 0.5908	0.9906
343.78 K, 206.4 kPa, x1 = 0.3594	0.9884
343.78 K, 280.1 kPa, x1 = 0.5908	0.9872
343.78 K, 307.3 kPa, x1 = 0.3594	0.9836
343.78 K, 416.8 kPa, x1 = 0.5908	0.9817
343.78 K, 456.2 kPa, x1 = 0.3594	0.9762
343.78 K, 618.2 kPa, x1 = 0.5908	0.9733
343.78 K, 674.7 kPa, x1 = 0.3594	0.9649
343.78 K, 912.7 kPa, x1 = 0.5908	0.9605
343.78 K, 991.4 kPa, x1 = 0.3594	0.9477
343.78 K, 1338.5 kPa, x1 = 0.5908	0.9415
343.78 K, 1443.8 kPa, x1 = 0.3594	0.9225
343.78 K, 1942.8 kPa, x1 = 0.5908	0.9134
343.78 K, 2073.7 kPa, x1 = 0.3594	0.8857
343.78 K, 2776.8 kPa, x1 = 0.5908	0.8726
343.78 K, 2917.9 kPa, x1 = 0.3594	0.833
343.78 K, 3879.6 kPa, x1 = 0.5908	0.8149
364.35 K, 199.4 kPa, x1 = 0.5606	0.9913
364.35 K, 297.5 kPa, x1 = 0.5606	0.9887
364.35 K, 443 kPa, x1 = 0.5606	0.9839
364.35 K, 657.8 kPa, x1 = 0.5606	0.9766
364.35 K, 972.8 kPa, x1 = 0.5606	0.9653
364.35 K, 1430 kPa, x1 = 0.5606	0.9485
364.35 K, 2083.5 kPa, x1 = 0.5606	0.9237
364.35 K, 2996.2 kPa, x1 = 0.5606	0.8879
364.35 K, 4225.6 kPa, x1 = 0.5606	0.837
364.36 K, 114.2 kPa, x1 = 0.2563	0.9933
364.36 K, 134.6 kPa, x1 = 0.33	0.9913
364.36 K, 170.5 kPa, x1 = 0.2563	0.9913
364.36 K, 197 kPa, x1 = 0.4559	0.9909
364.36 K, 200.9 kPa, x1 = 0.33	0.9892
364.36 K, 250.5 kPa, x1 = 0.7632	0.9908
364.36 K, 254.2 kPa, x1 = 0.2563	0.9878
364.36 K, 294 kPa, x1 = 0.4559	0.9885
364.36 K, 299.7 kPa, x1 = 0.33	0.9864
364.36 K, 373.5 kPa, x1 = 0.7632	0.9875
364.36 K, 378.2 kPa, x1 = 0.2563	0.9825
364.36 K, 437.3 kPa, x1 = 0.4559	0.9828
364.36 K, 445.6 kPa, x1 = 0.33	0.9802
364.36 K, 556.1 kPa, x1 = 0.7632	0.9827
364.36 K, 561.2 kPa, x1 = 0.2563	0.9743
364.36 K, 649 kPa, x1 = 0.4559	0.9748
364.36 K, 660.6 kPa, x1 = 0.33	0.9712
364.36 K, 824.6 kPa, x1 = 0.7632	0.974
364.36 K, 828.8 kPa, x1 = 0.2563	0.9619
364.36 K, 959 kPa, x1 = 0.4559	0.9628
364.36 K, 974.3 kPa, x1 = 0.33	0.9575
364.36 K, 1216 kPa, x1 = 0.2563	0.9432
364.36 K, 1218.7 kPa, x1 = 0.7632	0.9621
364.36 K, 1408 kPa, x1 = 0.4559	0.9448
364.36 K, 1425.9 kPa, x1 = 0.33	0.9367
364.36 K, 1766.2 kPa, x1 = 0.2563	0.9157
364.36 K, 1788.6 kPa, x1 = 0.7632	0.9438
364.36 K, 2047.8 kPa, x1 = 0.4559	0.9185
364.36 K, 2064.5 kPa, x1 = 0.33	0.9064
364.36 K, 2528.1 kPa, x1 = 0.2563	0.8762
364.36 K, 2598.5 kPa, x1 = 0.7632	0.9166
364.36 K, 2935.9 kPa, x1 = 0.4559	0.8802
364.36 K, 2942.6 kPa, x1 = 0.33	0.8636
364.36 K, 3725.1 kPa, x1 = 0.7632	0.8782
364.36 K, 4122.8 kPa, x1 = 0.4559	0.8262
364.36 K, 5229 kPa, x1 = 0.7632	0.824
